Where “and” joins values, the source holds several entries; their conditions need not be identical. Equal values may be shown once.
Columns and labels:
[1] = Photophysical parameters of fluorophores in glycerol; assay type: physicochemical
Description: FP analogues (20 μM) were prepared in glycerol:H2O mixture with increasing glycerol concentrations. In addition, fluorescence intensity in 1,4-dioxane was measured to evaluate their response to polarity. Fluorescence measurement was carried out using a Tecan infinite M1000Pro fluorescence microplate reader at excitation and emission wavelengths as indicated. All readings were normalized against the fluorescence intensity in 100% glycerol as 1. Error bars: standard error (n=3).
FP analogues (20 μM) were prepared in glycerol. Spectra were collected with emission wavelength of 420 nm for 1, 525 nm for 2, 620 nm for 3, 3a and 3b. All measurements were carried out using a Tecan infinite M1000Pro fluorescence microplate reader.
FP analogues (20 μM) were prepared in glycerol. Spectra were collected with excitation wavelength of 370 nm for 1, 455 nm for 2, 530 nm for 3 and 3b, 485 nm for 3a. All measurements were carried out using a Tecan infinite M1000Pro fluorescence microplate reader.
FP analogues (10 μM) were prepared in glycerol. Spectra were collected with 10 mm quartz cuvette. All measurements were carried out using Agilent 300 UV-Vis spectrophotometer.
However, the quantum yield (QY, Φ=0.001 for 1 and Φ=0.027 for 2 in glycerol, Table 2) was much lower than that of a GFP (Φ=0.79).

[2] = Photostability of 3, absorbance under laser irradiation; assay type: physicochemical; conditions: 5 mW laser beam of 543 nm; glycerol and protein aggregates
Description: The inventors also determined photostability of 3 by measuring its absorbance spectra in glycerol and protein aggregates. […] These photochemical properties make 3 suited for fluorescence microscopy.

[3] = Fluorescence of crystals of 3; assay type: physicochemical; conditions: crystal
Description: (a) The crystal of 3 is fluorescent. The crystals were looped out and transferred to a 35 mm glass bottom dish. Images were taken using an inverted Biorad ZOE fluorescent cell imager. […] Reason of the dark image in the bright field is because light of an inverted microscope could not pass through the thick crystal. (b) Crystal structure and packing diagram of 3, with thermal ellipsoids drawn at 50% probability level.
The fluorescence may arise from the tight crystal packing that inhibits TICT of 3 (FIG. 10b).

HEK293T cells = assay: Stress-induced proteome aggregation in HEK293T cells with MG132 (AggGlow); assay type: cell-based, human; conditions: 5 μM MG132, 2.5 μM 3
Description: (§1) Untreated cells remain dark as shown in right panel.
(§2) 3 is used to monitor stress-induced proteome aggregation in HEK293T (human embryonic kidney) cells with a proteasome inhibitor MG132. […] The diffusive fluorescence structure indicates misfolded oligomers and the granular fluorescence structure indicates insoluble aggregates. Similar to this application, 3 was used to monitor stress-induced proteome aggregation in HeLa cells with a heat-shock protein 90 (Hsp90) inhibitor 17-AAG.

SOD1(V31A) = biological target: T1, SOD1(V31A) (Homo sapiens, UniProt P00441, V32A); assay: Heat-induced SOD1(V31A) aggregation assay, fluorogenic detection; assay type: biochemical
T1 construct: linker (TEV site)-Halo-His6 (C, cleaved yes); made in house; host or cells: E. coli BL21 DE3* (pET29b; pBAD σ32-I54N co-expressed)
T1 sequence (P00441 whole entry V32A): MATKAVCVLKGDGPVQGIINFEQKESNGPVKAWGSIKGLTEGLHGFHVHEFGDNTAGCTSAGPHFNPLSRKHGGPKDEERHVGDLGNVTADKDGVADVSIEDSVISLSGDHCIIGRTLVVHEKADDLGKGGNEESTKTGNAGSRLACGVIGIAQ
Description: (a) SOD1(V31A) aggregation (42 μM) was induced at 59° C. for 30 min in buffer (50 mM Tris-HCl, pH 7.5, 100 mM NaCl, 83 mM EDTA), in the presence of 3 (21 μM). Reaction mixture was illuminated by UV trans-illuminator before and after centrifugation at 21,000 g for 10 min at 4° C. (b) Fluorescence intensity of SOD1(V31A) aggregates (42 μM) in the presence of varying concentrations of 3. 100 μM of 3 in buffer was used as a control. Parameters for fluorescence measurement: 3 (Ex=530 nm/Em=600 nm). Error bars: standard error (n=3).
(§3) HEK293T cultures were seeded at 25% confluency 24 h prior to transfection in 12-well plate for time dependent fluorescence plate reader analysis or 35 mm glass bottom culture dishes (Poly-d-lysine coated, MatTek Corporation). Cells were grown in DMEM medium supplemented with 10% FBS and penicillin-streptomycin antibiotics until they reached 50-60% confluency. Transfection was performed using X-tremeGene™ 9 DNA transfection reagent (Roche). After 24 h of protein expression and co-translational labeling, medium was replaced with fresh DMEM to diffuse out unbound ligands. After 30 min, media was replaced by fresh DMEM medium containing DMSO vehicle or NaAsO2 (50 μM). Cells were incubated for 18 h, 37° C. in a CO2 incubator. Nuclear stain Hoechst 33342 ([…]) was added to the medium 30 min prior to confocal imaging. Aggregation Assays. α-synuclein: Aggregation solution contained 70 or 140 μM α-synuclein in 20 mM HEPES (pH 7.5) and 100 mM NaCl. 10 μM of 3 or ThT was added to the solution at the beginning of reaction. Previous studies have shown that the kinetics of α-synuclein aggregation is unaffected by the addition of ThT. A volume of 150 μL of the mixture was pipetted into a well of clear-bottom 96-well plate, which was subsequently sealed with Mylar plate sealers. The plate was loaded on a Heidolph vibrating platform shaker and shake at 1,350 rpm at 37° C. At indicated time points, fluorescence reading was obtained using a Tecan M1000Pro fluorescence plate reader. Fluorescence intensity was recorded at Ex=530 nm/Em=600 nm for 3 and Ex=450 nm/Em=480 nm for ThT. Each sample was run in triplicate or quadruplicate. SOD1(V31A): Aggregation was carried out with DPBS buffer containing indicated concentrations of EDTA that is used to chelate the structural metal of SOD1. Aggregation solution contained 42 μM SOD1(V31A) or SOD1(V31A)-Halo and […] of 3 was added to the solution at the beginning of reaction. Reaction was carried out quiescently at indicated temperatures. Fluorescence of 3 was measured at Ex=530 nm/Em=600 nm.

α-synuclein = biological target: T2, α-synuclein (Homo sapiens, UniProt P37840); assay: α-synuclein aggregation assay, fluorogenic detection; assay type: biochemical
T2 construct: made in house; host or cells: E. coli (pET29b vector)
Description: Aggregation of α-synuclein was carried out using method described in the Supporting Information. Subsequently, half of reaction mixture was loaded on a 96-well plate to measure fluorescence intensity of 3 (a) or ThT (b) for the reaction mixture (T). The other half was centrifuged at 21,000 g for 30 minutes at 4° C. The supernatant fraction (S) and pellet fraction (P, after resuspension with a volume that was equal to that of the S fraction) were loaded on a 96-well plate to measure fluorescence intensity. 10 μM 3 or ThT was also incubated in buffer as a control. Parameters for fluorescence measurement: 3 (Ex=530 nm/Em=600 nm) and ThT (Ex=440 nm/Em=480 nm). Error bars: standard error (n=3).
as §3

HeLa cells = assay: Stress-induced proteome aggregation in HeLa cells with 17-AAG (AggGlow); assay type: cell-based; conditions: 1 μM 17-AAG, 2.5 μM 3
Description: as §1, §2

SOD1-A4V-Halo [4] = biological target: T3, SOD1-A4V-Halo (Homo sapiens, UniProt P00441, A5V); assay: Two-color imaging of SOD1-A4V-Halo in HEK293T cells under MG132; assay type: cell-based; set-up: expressed in transfected cells; host or cells: HEK293T; conditions: 4 and 5 both at 0.5 μM, 5 μM MG132 for 8 h
Description: (§4) (B-C) Excitation and emission spectra of 4 (with misfolded oligomers of SOD1-A4V-Halo) and 5 (with insoluble aggregates of SOD1-A4V-Halo).
(§5) Combination of 4 and 5 enables a two-color imaging strategy to differentiate insoluble aggregates from soluble oligomers. The inventors carried out live cell imaging experiments, wherein 4 or 5 was used to visualize aggregation of POI-Halo fusion proteins in HEK293T cells. […] To this end, the inventors labeled HEK293T cells expressing SOD1-A4V-Halo simultaneously with 4 and 5 (both at 0.5 μM) for 24 h and treated cells with 5 μM MG132 for 8 h. […] The inventors further carried out experiments using Htt-PolyQ with 110 glutamine repeats (Htt-110Q-Halo).
Target sequence in this assay (P00441 with tags, fused parts or gaps A5V limits assumed): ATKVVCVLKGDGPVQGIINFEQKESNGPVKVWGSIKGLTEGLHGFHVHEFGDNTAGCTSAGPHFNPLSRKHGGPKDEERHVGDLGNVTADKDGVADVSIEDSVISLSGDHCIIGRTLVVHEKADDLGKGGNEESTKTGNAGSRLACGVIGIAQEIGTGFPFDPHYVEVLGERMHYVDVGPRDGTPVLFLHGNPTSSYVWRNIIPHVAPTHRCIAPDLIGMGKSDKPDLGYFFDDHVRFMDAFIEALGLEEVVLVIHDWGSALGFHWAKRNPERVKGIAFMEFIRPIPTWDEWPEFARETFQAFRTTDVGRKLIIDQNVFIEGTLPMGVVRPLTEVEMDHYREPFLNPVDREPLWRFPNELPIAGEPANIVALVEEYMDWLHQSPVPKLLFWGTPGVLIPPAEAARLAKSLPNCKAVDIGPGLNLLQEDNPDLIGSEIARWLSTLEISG

Htt-110Q-Halo [5] = assay: Two-color imaging of Htt-110Q-Halo in HEK293T cells; assay type: cell-based, human; conditions: control
Description: as §4, §5

Htt-110Q-Halo [6] = biological target: T4, Htt-110Q-Halo (Homo sapiens, UniProt P42858); assay: as above; assay type: cell-based
T4 construct: using the Huntingtin exon 1 protein (Htt) with expansion of a polyglutamine tract within its N-terminal domain; expressed in transfected cells; host or cells: HEK293T
T4 sequence (P42858 with tags, fused parts or gaps): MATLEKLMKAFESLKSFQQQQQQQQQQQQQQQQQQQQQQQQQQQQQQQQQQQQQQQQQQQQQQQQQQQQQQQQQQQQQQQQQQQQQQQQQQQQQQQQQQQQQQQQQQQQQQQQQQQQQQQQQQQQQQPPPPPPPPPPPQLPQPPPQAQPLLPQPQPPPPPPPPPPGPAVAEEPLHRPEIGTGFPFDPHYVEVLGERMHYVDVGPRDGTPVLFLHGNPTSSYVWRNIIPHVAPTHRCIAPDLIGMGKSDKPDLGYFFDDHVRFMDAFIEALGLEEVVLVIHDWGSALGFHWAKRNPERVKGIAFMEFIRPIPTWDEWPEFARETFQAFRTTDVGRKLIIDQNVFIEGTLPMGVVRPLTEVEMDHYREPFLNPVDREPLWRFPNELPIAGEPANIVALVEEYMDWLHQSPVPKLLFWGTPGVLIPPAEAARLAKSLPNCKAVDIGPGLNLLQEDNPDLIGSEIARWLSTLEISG
Description: as §4, §5

SOD1-A4V-Halo [7] = biological target: T3, SOD1-A4V-Halo; assay: In vitro heat-induced aggregation of SOD1-A4V-Halo conjugates; assay type: biochemical
Description: as §4
Target sequence in this assay (P00441 with tags, fused parts or gaps A5V): as the sequence (P00441 with tags, fused parts or gaps A5V limits assumed) above
The inventors installed Halo-tag reactive warhead to 2, resulting in 5.

[8] = 4 with misfolded oligomers, 5 with insoluble aggregates of SOD1-A4V-Halo

## CN(C)c1ccc(/C=C2N=C(/C=C/c3ccc(N(C)C)cc3)N(CC(=O)OC(C)(C)C)C\2=O)cc1 [Compound 3, tert-butyl 2-((Z)-4-(4-(dimethylamino)benzylidene)-2-((E)-4-(dimethylamino)styryl)-5-oxo-4,5-dihydro-1H-imidazol-1-yl)acetate]
[1]; calculated using B = Φϵ
  B (brightness): 8,786 M^−1cm^−1
[1]; in glycerol
  Φ (quantum yield): 0.22 and 0.221
  λem: 629 nm
  λex: 530 nm
[1]; maximum absorbance measured in glycerol
  λabs: 530 nm
[1]; measured in glycerol
  ϵ (extinction coefficient): 39,049 M^−1cm^−1
[2]
  drop of absorbance at 530 nm on irradiation: 10%
[3]
  fluorescence of crystals: exhibited fluorescence
HEK293T cells
  fluorescence in stressed cells: obvious fluorescence pattern was developed in the cytosol
SOD1(V31A)
  kinetics of fluorescence increase versus protein misfolding (tryptophan fluorescence): identical to that of protein misfolding
SOD1(V31A); 54.5° C.
  kinetics of fluorescence increase versus turbidity: faster than that of turbidity
SOD1(V31A); after centrifugation
  fraction in which fluorescence signal is found: primarily found in the fraction of insoluble protein aggregates
SOD1(V31A); incubated at 59° C.
  quantum yield after aggregation of SOD1-V31A: 0.22
SOD1(V31A); start value
  quantum yield before aggregation of SOD1-V31A: 0.02
α-synuclein
  detection of soluble oligomers of α-syn: detects soluble oligomers via fluorescence increase
α-synuclein; 70 μM α-syn
  fluorescence intensity with mature α-syn fibers: 0.52
α-synuclein; 140 μM α-syn
  fluorescence intensity with mature α-syn fibers: 1.0
α-synuclein; 70 vs 140 μM α-syn
  stoichiometry of fluorescence intensity with α-syn concentration: stoichiometric
α-synuclein; fiber growth
  time at which second phase of fluorescence increase was observed: 20 h
α-synuclein; fiber maturation
  time at which second phase leveled off: 36 h
α-synuclein; first phase
  time at which fluorescence reached a plateau: 8 h
α-synuclein; first phase, soluble oligomers
  time at which fluorescence started to increase: 4 h
HeLa cells
  fluorescence in stressed cells: obvious fluorescence pattern was developed in the cytosol

## CC1=N/C(=C\c2ccc(N(C)C)cc2)C(=O)N1CC(=O)N[C@H]1CC[C@H](C(=O)NCCOCCOCCCCCCCl)CC1 [Compound 5]
SOD1-A4V-Halo [4]
  fluorescence of perinuclear SOD1 A4V-Halo granules: dark fluorescence to a background level
Htt-110Q-Halo [5]
  fluorescence in cells co-expressing Halo-tag and Htt-110Q-mCherry: fluorescence was not observed
Htt-110Q-Halo [6]
  fluorescence of Htt-110Q-Halo inclusions: exhibit fluorescence from both 4 and 5
SOD1-A4V-Halo [7]
  molar extinction coefficient: 23,716 M^−1·cm^−1
SOD1-A4V-Halo [7]; [8]
  Em: 520 nm
  Ex: 450 nm

Reference: patent publication US20210094922A1, “Dyes for Analysis of Soluble Protein Aggregates or Misfolded Protein Oligomers” (The Penn State Research Foundation, priority 2018, published 2021)
